{
  "source": "patent US20260176232A1",
  "about": "“PROBENECID COMPOUNDS FOR THE TREATMENT OF INFLAMMASOME-MEDIATED DERMATOLOGICAL CONDITIONS” (Bacainn Biotherapeutics, Ltd., priority 2022, published 2026)",
  "key": {"NLRP3 inflammasome [1]": {"target": "T1, NLRP3 inflammasome (Mus musculus, UniProt Q8R4B8)", "T1 sequence (Q8R4B8 whole entry)": "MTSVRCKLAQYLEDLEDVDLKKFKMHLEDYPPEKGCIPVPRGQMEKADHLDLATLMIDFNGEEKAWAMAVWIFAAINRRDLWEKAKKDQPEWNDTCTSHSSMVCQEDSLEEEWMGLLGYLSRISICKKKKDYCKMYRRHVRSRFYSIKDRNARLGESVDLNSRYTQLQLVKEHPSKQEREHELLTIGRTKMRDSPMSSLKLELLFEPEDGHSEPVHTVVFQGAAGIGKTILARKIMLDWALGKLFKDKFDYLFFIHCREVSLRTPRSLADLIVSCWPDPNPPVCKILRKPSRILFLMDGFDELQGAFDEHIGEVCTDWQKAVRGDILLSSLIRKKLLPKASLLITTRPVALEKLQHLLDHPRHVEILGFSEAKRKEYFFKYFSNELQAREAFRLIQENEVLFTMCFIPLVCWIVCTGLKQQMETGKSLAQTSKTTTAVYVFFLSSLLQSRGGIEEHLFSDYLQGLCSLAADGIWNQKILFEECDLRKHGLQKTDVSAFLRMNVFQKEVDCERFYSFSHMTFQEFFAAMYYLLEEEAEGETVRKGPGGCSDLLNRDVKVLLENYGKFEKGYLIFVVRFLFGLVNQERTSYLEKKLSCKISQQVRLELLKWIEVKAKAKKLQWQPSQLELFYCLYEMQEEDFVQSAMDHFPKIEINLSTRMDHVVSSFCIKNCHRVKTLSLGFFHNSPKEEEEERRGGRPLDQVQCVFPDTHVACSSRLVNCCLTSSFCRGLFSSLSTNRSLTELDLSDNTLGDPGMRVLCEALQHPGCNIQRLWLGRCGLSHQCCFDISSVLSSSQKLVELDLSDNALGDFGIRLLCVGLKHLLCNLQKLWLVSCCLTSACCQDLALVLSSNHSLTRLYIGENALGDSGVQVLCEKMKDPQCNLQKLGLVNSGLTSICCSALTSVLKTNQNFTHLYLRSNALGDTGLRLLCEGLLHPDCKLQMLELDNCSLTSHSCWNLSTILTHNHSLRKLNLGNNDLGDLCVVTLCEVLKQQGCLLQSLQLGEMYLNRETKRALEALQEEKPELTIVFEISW", "experiment": "IL-1β secretion in macrophages challenged with nigericin, MSU or silica (FIG. 4C)", "settings": "BT032 20, 100 μM; MCC950 5 μM; secreted IL-1β"}, "[2]": {"tested_on": "NLRP1-mediated inflammasome activity", "experiment": "IC50 curve, L18-MDP-induced IL-1β secretion in LPS-primed immortalized BMDMs", "type": "cell-based, murine", "settings": "L18-MDP 100 μg/mL; drug 3.9-350 μM; FIG. 4B; read-out: half maximal inhibitory concentration (IC50), NLRP1-mediated inflammasome activity", "method": "FIGS. 4A and 4B are charts showing inflammasome activity as determined by measuring secreted IL-1β concentrations in murine immortalized BMDMs pre-activated with lipopolysaccharide (LPS; 100 ng/mL) for 3 h. The macrophages were stimulated with either the NLRP3 activator, nigericin (3 μM) (FIG. 4A) or the NLRP1 agonist L18-MDP (100 μg/mL) (FIG. 4B) and treated or not with BT032 (3.9-350 μM). […] BT032 versus normalized responses (variable slope)."}, "AIM2 inflammasome": {"tested_on": "AIM2 inflammasome", "experiment": "IL-1β secretion in macrophages challenged with poly dA:dT (FIG. 4C)", "type": "cell-based, human", "settings": "BT032 20, 100 μM; 6 h", "description": "(§1) In vitro stimulation of human macrophages."}, "[3]": {"tested_on": "inflammasome activation by UVB", "experiment": "Dermal UVB inflammatory challenge in healthy volunteers after intradermal dosing", "type": "in vivo, human", "method": "This is a single-center, inflammatory challenge study in healthy volunteers, to evaluate inflammasome activation by UVB in healthy volunteers. Healthy volunteers will undergo a topical UVB challenge after intradermal dosing with BT032.\nUV-B Challenge+BT032 (n=9; 3 Placebo, 6 Active): • Screening: 1 hour admission • Study day (day −1 to 1): 24 hours admission (baseline assessments, challenge, and 2, 4 hr blister, skin assessments) • Follow-up visit 1 (day 2): 1 hour admission (24 hr blister) • End of study visit (+7 days): 1 hour admission\nInvestigational drug (BT032)+UVB challenge. As part of the screening assessments, the subject's Fitzpatrick skin photo type is determined (type I-VI). The subject is first exposed to 6 different doses of UV-B, to determine the Minimal Erythemic Dose (MED) expressed in J/cm^2, using the six different slots of the UV-B lamp. Twenty-four hours (±2 hours) after the exposure of the 6 doses, the erythemic response of the skin to UV-B is assessed by two observers. The MED is determined visually, by observing which dose produces the first clearly discernible erythema. On the treatment days, the subject's skin is exposed to two minimal erythema doses (2MED) of UVB.\nSubjects Groups. A total of 9 healthy volunteers will be enrolled. These subjects will undergo an UVB challenge after dosing with BT032. […]"}, "Recombinant NLRP3": {"tested_on": "Recombinant NLRP3", "experiment": "Photo-affinity labelling of recombinant NLRP3, anti-PEG immunoblot (FIG. 9C)", "type": "binding", "settings": "inferred from photo-affinity probes ADS165, ADS167"}, "NLRP1 inflammasome [4]": {"tested_on": "NLRP1 inflammasome", "experiment": "IL-1β secretion in macrophages challenged with L18-MDP (FIG. 7)", "type": "cell-based, human", "settings": "20, 100, 350 μM, L18-MDP 100 μg/mL 16 hours, secreted IL-1β", "description": "as §1"}, "[5]": {"tested_on": "anisomycin-induced psoriatic dermatitis", "experiment": "Anisomycin-induced psoriatic dermatitis, topical treatment of murine ear", "design": "species or system C57BL/6 mice", "settings": "mouse, in vivo", "description": "Psoriasis is a chronic inflammatory skin disease characterized by IL-17-mediated immune responses, and p38 is known to be highly activated in the psoriatic epidermis. In this example, a p38 activator, anisomycin, is applied daily to murine skin. The probenecid analogs of the present technology (e.g., BT032) are applied to murine psoriatic models topically or to human psoriatic skin specimens ex vivo. Mice. Eight- to 12-week old female mice are used in this study. All animals are of the C57BL/6 genetic background. Animals are maintained under specific pathogen-free conditions. Anisomycin treatment. Anisomycin solution (2 mg/mL in 99.5% ethanol) is applied to the inner and outer sides of a murine ear once daily at a dosage of 10 μL per side of the ear. Histological analyses. For histologic examination, ear skin samples are fixed with 10% formalin and embedded in paraffin. Sections along the median plane of the ear with a thickness of 5 μm are prepared and subjected to staining with hematoxylin and eosin (H&E). Images of two consecutive microscopic fields of H&E-stained sections are obtained using a digital microscope. Time course changes in ear thickness are measured. Thickness is measured daily before treatment."}, "NLRP1 inflammasome [6]": {"tested_on": "NLRP1 inflammasome", "experiment": "IL-1β secretion in macrophages challenged with L18-MDP (FIG. 4C)", "type": "cell-based, human", "settings": "BT032 20, 100 μM; MCC950 5 μM; L18-MDP 100 μg/ml 16 h", "description": "as §1"}, "NLRP1 inflammasome [7]": {"tested_on": "NLRP1 inflammasome", "experiment": "L18-MDP-induced IL-1β secretion in WT or NLRP3-/- immortalized BMDMs (FIG. 8)", "type": "cell-based, murine", "settings": "20, 50, 100, 350 μM", "description": "In vitro stimulation of murine macrophages."}, "[8]": {"tested_on": "non-canonical inflammasome", "experiment": "IL-1β secretion in macrophages challenged with LPS (B4) (FIG. 4C)", "type": "cell-based, human", "settings": "BT032 20, 100 μM; Pam3Cys priming; LPS 0111:B4 16 h", "description": "as §1"}, "NLRP3 inflammasome [9]": {"target": "T1, NLRP3 inflammasome", "experiment": "IL-1β secretion (ELISA) in LPS-primed iBMDMs stimulated with silica or nigericin", "type": "cell-based, murine (C57BL/6)", "design": "endogenous in cells; host or cells: immortalized wild-type C57BL/6 bone-marrow derived macrophages (iBMDMs), LPS-primed", "settings": "compared with probenecid in DMSO or PBS", "method": "In vitro stimulation of murine macrophages. Immortalized wild-type C57BL/6 bone-marrow derived macrophages (iBMDMs) were grown in DMEM supplemented with 10% heat inactivated FBS and 2 mM glutamine. iBMDMs were seeded in 96-well plates 24 hours prior incubation with lipopolysaccharide (LPS; 100 ng/mL) for 3 hours. Cells were then incubated with a control probenecid compound (probenecid dissolved in DMSO (Prob/D), probenecid dissolved in PBS (Prob/P)) or one of the probenecid analogs of the present technology (BT032, BT132, BT133, BT134, BT135, BT136, BT137, BT138, BT139, or BT140) at concentrations of 300 μM, 150 μM, 30 μM, or 3 μM 1 hour prior to stimulation with NLRP3 inflammasome activators, silica ([…]) or nigericin (6 μM). After an additional 6 hours, cell supernatants were collected and levels of IL-1β were quantified by ELISA. These experiments were run in triplicate three times."}},
  "data": [
    {"smiles": "CCCN(CCC)S(=O)(=O)c1ccc(-c2ccc(CCCC(=O)O)cc2)cc1", "note": "[BT032, 4-(4′-(N,N-dipropylsulfamoyl)-[1,1′-biphenyl]-4-yl)butanoic acid]", "values": [
      {"measurement": "NLRP3 (Nigericin, MSU, Silica)-induced inflammasome activation", "setting": "NLRP3 inflammasome [1]", "result": "dose-dependently inhibited"},
      {"measurement": "IC50", "setting": "[2]", "result": 30, "unit": "µM"},
      {"measurement": "AIM2 (poly dA:dT)-mediated inflammasome activation", "setting": "AIM2 inflammasome", "result": "no effect"},
      {"measurement": "levels of inflammasome-driven cytokines and/or inflammasome proteins versus non-treated controls", "setting": "[3]; IL-1β, IL-18, IL-6, TNF, NLRP3, ASC, NLRP1", "result": "reduced levels"},
      {"measurement": "activation of inflammasomes versus non-treated controls", "setting": "[3]; intradermal dosing, UVB 2MED", "result": "reduction in the activation of inflammasomes"},
      {"measurement": "direct interaction with NLRP3", "setting": "Recombinant NLRP3", "result": "directly interacts proximal to the Walker B motif within the NACHT domain"},
      {"measurement": "NLRP1 (L18-MDP)-induced inflammasome activation", "setting": "NLRP1 inflammasome [4]", "result": "dose-dependently inhibited"},
      {"measurement": "ear thickness, scaly erythema, and histologic changes induced by anisomycin", "setting": "[5]", "result": "attenuated"},
      {"measurement": "NLRP1 (L18-MDP)-induced inflammasome activation", "setting": "NLRP1 inflammasome [6]", "result": "dose-dependently inhibited"},
      {"measurement": "NLRP1 (L18-MDP)-induced inflammasome activation as measured by IL-1β secretion", "setting": "NLRP1 inflammasome [7]; NLRP3-/- macrophages", "result": "dose-dependently inhibited"},
      {"measurement": "NLRP1 (L18-MDP)-induced inflammasome activation as measured by IL-1β secretion", "setting": "NLRP1 inflammasome [7]; WT macrophages", "result": "dose-dependently inhibited"},
      {"measurement": "non-canonical inflammasome activity (LPS (B4))", "setting": "[8]", "result": "limited impact"},
      {"measurement": "potency versus control probenecid compounds (IL-1β secretion)", "setting": "NLRP3 inflammasome [9]", "result": "more potent than the control probenecid compounds"}
    ]}
  ]
}
